Test results: patent US7449560B2, “Phosophoinositoglycan binding proteins” (Sanofi-Aventis Deutschland GmbH, priority 2002, dated 2008)

How the values were obtained:
[1] = tested on: PIG(-P) receptor at hcDIGs; experiment: Competition of unlabeled PIG(-P) with radiolabeled YCN-PIG binding to hcDIGs; design: species or system rat; conditions: for Binding affinity: hcDIGs of rat adipocytes; for efficacy in the competition assay (displacement of radiolabeled YCN-PIG from hcDIGs): unlabeled competitor
Method: (§1) 10 μl, of radiolabeled YCN-PIG or IcGce1p (60,000-80,000 dpm/nmol, final conc. 5 μM) was added to 40 μl of suspended plasma membranes, microsomes or hc/IcDIGs (40-80 μg of protein) in binding buffer in the absence or presence of unlabeled competitor (as indicated in the figure legends) in a total volume of 100 μl and incubated (30 min, 4° C.). For separation of membranes from the incubation medium, 45 μl aliquots were carefully layered over 200 μl, oil layers consisting of dibutyl phthalate and dioctyl phthalate (1/1 by vol., final density 1.012) in case of plasma membranes/microsomes or dibutyl phthalate and dinonyl phthalate (1/9 by vol., final density […]) in case of hc/IcDIGs in 0.4 ml precooled (4° C.) centrifugation tubes (microtubes no. 72.700, Sarstedt, Germany). […] After rigorous shaking (16 h, 25° C.), the radioactivity was counted in 9 ml of ACSII scintillation cocktail (Beckman). Under these conditions, sticking to the tube walls and partitioning into the oil layer of both radiolabeled YCN-PIG and IcGce1p accounted for 50-120 dpm (i.e. less than 0.5% of total radioactivity used per incubation) and therefore was not considered for calculation of binding data. Typical recoveries of plasma membranes and microsomes were 78-85% and 65-80%, respectively, and of hcDIGs and IcDIGs 83-92% and 70-78%, respectively, according to protein determination.
Radiolabeled YCN−PIG (18,000-22,000 dpm) was incubated (1 h, 4° C.) with hcDIGs (6.5 μg protein) in the absence or presence of increasing amounts of unlabeled YCN-PIG, YCN+PIG37, YMN-PIG, PIG37 and YCN (Competition). The membrane fractions/DIGs were subjected to oil-layer-centrifugation, recovered with/from the pellet/top of the oil layer, solubilized and counted for radioactivity.

[2] = tested on: IcGce1p binding site at hcDIGs; experiment: Competition of synthetic PIG(-P) with radiolabeled IcGce1p binding to hcDIGs; design: species or system rat
Method: (§2) 10 μl, of radiolabeled YCN-PIG or IcGce1p (60,000-80,000 dpm/nmol, final conc. 5 μM) was added to 40 μl of suspended plasma membranes, microsomes or hc/IcDIGs (40-80 μg of protein) in binding buffer in the absence or presence of unlabeled competitor (as indicated in the figure legends) in a total volume of 100 μl and incubated (30 min, 4° C.). […] After rigorous shaking (16 h, 25° C.), the radioactivity was counted in 9 ml of ACSII scintillation cocktail (Beckman). Under these conditions, sticking to the tube walls and partitioning into the oil layer of both radiolabeled YCN-PIG and IcGce1p accounted for 50-120 dpm (i.e. less than 0.5% of total radioactivity used per incubation) and therefore was not considered for calculation of binding data. […]
Radiolabeled Gce1p prepared from S. cerevisiae and treated with PI-specific PLC (B. cereus) was incubated (1 h, 4° C.) with hcDIGs (6.5 μg protein) isolated from untreated rat adipocytes in the absence or presence of unlabeled PIG-P. hcDIGs were subjected to oil-layer-centrifugation, solubilized and counted for radioactivity. […]

[3] = tested on: PIG(-P) receptor at hcDIGs; experiment: Binding of radiolabeled YCN-PIG to hcDIGs (oil-layer centrifugation, Scatchard plot); design: species or system rat
Method: as §1, with “determination. […]” for “determination.”
Increasing amounts of radiolabeled YCN−PIG isolated from S. cerevisiae were incubated (1 h, 4° C.) with hcDIGs (6.5 μg protein), IcDIGs (6.5 μg), plasma membranes (47.5 μg) and microsomes (68 μg) from isolated rat adipocytes. The membrane fractions/DIGs were subjected to oil-layer-centrifugation, recovered with/from the pellet/top of the oil layer, solubilized and counted for radioactivity. Specific binding was calculated as the difference between radioactivity measured in the absence and presence of 10 μM unlabeled YCN−PIG. […]

IcDIGs = experiment: Binding of radiolabeled YCN-PIG to IcDIGs; design: species or system rat; conditions: control adipocytes (no m-βCD)
Method: as §2
Radiolabeled YCN-PIG (12,000-18,000 dpm) was incubated (1 h, 4° C.) with the (proportional) amounts of hcDIGs and IcDIGs prepared from isolated rat adipocytes which had been pretreated (50 min, 30° C.) with increasing concentrations of m-βCD or left untreated. DIGs were subjected to oil-layer-centrifugation, recovered from top of the oil layer, solubilized and counted for radioactivity measured in the absence and presence of 10 μM unlabeled YCN-PIG. […]

[4] = tested on: CIR (115 kDa polypeptide); experiment: [14C]NEM-labeling and trypsin/NaCl release of CIR from rat adipocytes; type: cell-based; conditions: adipocytes treated before labeling
Method: For trypsin/NaCl-treatment, 2 ml of adipocyte suspension (3.5×10^6 cells/ml) in KRH containing 5 mM glucose was incubated (20 min, 30° C.) in the presence of 100 μg/ml trypsin. Soy bean trypsin inhibitor (final conc. 100 μg/ml) and 2 ml of KRH containing 1 M NaCl and 0.5% BSA were added and the incubation (10 min, 22° C.) continued. For NEM-treatment, 1 ml of adipocyte suspension (3.5×10^6 cells/ml) in KRH containing 5 mM glucose was incubated (30 min, 25° C.) with NEM (1.5 mM final conc.) and then with DTT (15 mM final conc., 5 min). After the treatments, the cells were centrifuged (1500×g, 5 min, swing-out rotor) and the infranatant removed by suction. The cell suspension left (about 0.5 ml) was supplemented with 10 ml of KRH containing 0.5% BSA and then centrifuged again (500×g, 1 min, swing-out rotor). […] Proteins of the medium contained in the lower part of the tubes were precipitated (10% TCA, two acetone washes), suspended in Laemmli sample buffer and analyzed by SDS-PAGE. […]
Phosphorimages are shown from a typical experiment repeated three times with similar results. Quantitative evaluation of four different adipocyte incubations with triplicate measurements given as arbitrary units (mean±SD) with the amount of CIR released from trypsin/NaCl-treated control cells set at 100.

Row | Substance | Binding affinity [1] | efficacy in the competition assay (displacement of radiolabeled YCN-PIG from hcDIGs) [1] | Competition of IcGce1p binding [2] | Bmax ([3]; Scatchard plot analysis, radiolabeled YCN-PIG) | Bmax higher vs untreated ([3]; hcDIGs from PI-specific PLC-pretreated adipocytes, Scatchard) | increase in binding of YCN-PIG to hcDIGs ([3]; hcDIGs from adipocytes pretreated with GPI-specific PL (PI-specific PLC / GPI-specific PLD)) | YCN-PIG left associated with IcDIGs (IcDIGs) | stimulation of trypsin/NaCl-dependent release of [14C]NEM-labeled CIR [4]
1 | HO—PO(H)O-6Manα1 (Manα1-2)-2-Manα1-6Manα1-4GluN1-6Ino-1,2-(cyclic)-phosphate [PIG37] | intermediate | significantly reduced efficacy | considerably less efficient | – | – | – | – | –
2 | Tyr-Cys-Asn-NH—(CH2)2—O—PO(OH)O-6Manα1-2)2Manα1-6Manα1-4GluN1-6Ino-1,2-(cyclic)-phosphate [YCN-PIG, phosphoinositolglycan-peptide derived from yeast Gce1p GPI anchor; also chemically synthesized] | highest | – | – | 50-200 pmol per mg protein of hcDIGs | 2 to 3 fold | 200% | 20% | –
3 | Tyr-Cys-Asn-NH—(CH2)2—OH [YCN] | low | very low activity | considerably less efficient | – | – | – | – | –
4 | insulin: human insulin | – | – | – | – | – | – | – | 20%
